Key:
[1] = test system: relapsed MM; test: Time to progression of relapsed MM patients receiving high-dose Dex in prospective clinical trials; format: in vivo, human
Excerpt: High-dose pulsed dexamethasone (Dex) is one of the preferred treatments for relapsed MM patients and is currently the accepted gold standard against which investigational drugs are being tested. The predictors of outcome for relapsed patients while on Dexamthasone (Dex) treatment have not been well established. These predictors were prospectively evaluated using the Ki-67/MUM1 markers in patients with relapsed MM receiving Dex in consecutive, prospective clinical trials. Time to progression is defined as date of Dex initiation to date of progressive disease (PD). Sixteen patients with relapsed MM were evaluated.

[2] = test system: Rb phosphorylation by Cdk4/6 at serine 807/811 (pS807/811Rb) in lymphoma cells; test: Double IHC PAX5/pS807/811Rb with image analysis of lymph node biopsies of a B cell lymphoma patient in a phase I trial; format: in vivo, human; conditions: day 21 of therapy, 84.08% before treatment
Excerpt: (§1) The double stained IHC slides were accessioned into the image analysis system and then loaded onto the machine in batches of 60. A robotic arm picked up each slide, one at a time, and loaded it onto the microscope. Via a motorized stage, the microscope moves and scans the slide, looking for tissue, the location of which varies slightly from slide to slide. Once it has found the tissue, the device scans the tissue and the camera records low resolution images. Using the scanned low resolution images, the inventor selected ten good areas for subsequent high resolution scanning and analysis. Numerous data points were then calculated for each of the ten areas per slide, and those data were averaged.
(§2) Since no counterstain was used in these slides, all identifiable cells are positive for at least one marker (e.g., in FIG. 3A, cells that express neither MUM1 nor pSRb are not visible). The characteristics used for the analysis (“classifiers”) were determined by a process whereby the inventor trained the software what was considered to be cells of each color. The software analyzed the high resolution images by first applying color parameters to decide if a nucleus was blue, red, or purple. It finds pixels within the appropriate range of color parameters as defined by hue, saturation, and intensity; objects too light or too dark, as determined by the classifiers, were not included in the analysis. […]

[3] = test system: Ki67 expression in lymphoma cells; test: Double IHC PAX5/Ki67 with image analysis of lymph node biopsies of a B cell lymphoma patient in a phase I trial; format: in vivo, human; conditions: day 21 of therapy, 97.52% prior to treatment
Excerpt: as §1, §2

[4] = test system: MM cells (MUM1 positive) expressing Ki67 or pSRb; test: Double IHC MUM1/Ki67 or MUM1/pSRb of bone marrow biopsies of multiple myeloma patients in a phase I/II trial; format: in vivo, human; conditions: for Effect on cycling of MM cells (Ki67, pSRb): MM patient bone marrow, after treatment for 8 days
Method: In hematopoietic cancer biopsies, the non-cancer hematopoietic and immune cells must be excluded. In this example, multiple myeloma (MM) cells were identified in biopsy samples with an anti-MUM1 antibody and a detection system yielding a red signal. Specificity of MUM1 for myeloma cells in MM biopsies is estimated at ˜99%, thus excluding non-MM cells from the analysis. Double IHC was performed to detect cell cycle molecules in situ in MM cells. Each slide was stained for MUM1 (above) using Bond™ Polymer AP Red Detection System (DS9305, Leica, Bannockburn, Ill.) to afford a red pigment, and for the cell cycle molecule with Blue Alkaline Phosphate Substrate Kit (Vector Laboratories, Burlingame, Calif.) to afford a blue pigment. The cell cycle molecules, including Ki67 and pSRb, are nuclear. With these particular chromogen systems, double staining yielded MM cells with either a red nuclear signal if the cell was not proliferating or a purple nuclear signal if the MM cells were proliferating (positive for the cell cycle molecule in question). Cells with a blue nuclear signal ([…]) were non MM cells (FIG. 3A) that were proliferating.
To compute the percentage of MM cells expressing various cell cycle molecules, purple (MUM1+/cell cycle molecule+) cells were manually counted as a percentage of purple cells plus red (MUM1+/cell cycle molecule negative) cells. This manual method of analysis can be performed with any standard microscope.
To increase the accuracy, the same slides were first loaded in batches of 60 into an image analysis system, which performs photographic digital scans of each slide. Using an automatic image analyzer, the number of cells with a purple nucleus and those with a red nucleus in a given area was determined. The counts were performed in triplicate. The percentage of MM cells in the proliferative stage represented by the cell cycle molecule targeted is the number of purple cells divided by the number of purple and red cells. […] The intensity of positive staining was scored in comparison to expression in B cells from serial sections of a single tonsil control slide, run in parallel with the marrow slides. […]
IHC was performed on 4 micron sections of paraffin-embedded bone marrow tissues using a Leica Microsystems (Bannockburn, Ill.) Bond Max automated immunostainer. MUM1 MM cells were detected using an anti-MUM1 mouse monoclonal antibody (Mab) (Dako, Carpinteria, Calif.) and the Bond™ Polymer AP Red Detection System (Leica). Simultaneous expression of other proteins was detected with monoclonal antibodies to Ki-67, cyclin D1, cyclin D2, cyclin D3, MCM2, MCM7, skp2, p16, p18, p21, p27, Rb, c-myc, Cdk4 and Cdk6 and polyclonal rabbit antisera to either pSer^807/811, pSer^608 or pSer^780 of human Rb. […]

[5] = test system: Myeloma; conditions: cited from earlier work

Structure (SMILES): C[C@@H]1C[C@H]2[C@@H]3CCC4=CC(=O)C=C[C@]4(C)[C@@]3(F)[C@@H](O)C[C@]2(C)[C@@]1(O)C(=O)CO [Dex, dexamethasone]
- Patients showing progressive disease ([1]; 16 patients with relapsed MM, n=9): 56%
- Median time to progressive disease ([1]; patients with progressive disease, from Dex initiation): 87 days

Structure (SMILES): CC(=O)c1c(C)c2cnc(Nc3ccc(N4CCNCC4)cn3)nc2n(C2CCCC2)c1=O [PD-332991]
- pS807/811Rb found in % of lymphoma cells [2]: 2.14%
- Ki67 expression in % of lymphoma cells [3]: 23.13%
- MM patients showing similar efficacy ([4]; 11/11 MM patients): 100%
- Effect on cycling of MM cells (Ki67, pSRb) [4]: great efficacy
- Effect on cycling of MM cells (Ki67, pSRb) ([4]; listed as CDk4/6 inhibitor): no longer cycling
- Cycling of MM cells after cessation of drug ([4]; biopsies 6 days after cessation of drug administration): returned to cycling in percentages comparable to what was observed prior to treatment

Structure (SMILES): CC(C)C[C@H](NC(=O)[C@H](Cc1ccccc1)NC(=O)c1cnccn1)B(O)O [PS-341(bortezomib), bortezomib]
- Responsiveness, % of patients [5]: 30%

Source: patent US10928398B2, “Method for double staining colocalized nuclear-markers in histological lymphoid or bone marrow tissue sample” (CORNELL UNIVERSITY, priority 2008, dated 2021)
